{
  "source": "patent US8389468B2",
  "about": "“Approach to the treatment of compartment syndrome” (Lantmannen AS-Faktor AB, priority 2006, dated 2013)",
  "format_in_all_cases": "in vivo, rat",
  "key": {"HSV-1": {"test_system": "HSV-1", "experiment": "PCR of HSV-1 DNA copies in brain tissue, rats", "conditions": "1 or 10 pg intranasally twice daily", "from_the_text": "FIG. 5: Quantitative PCR performed on brain tissues from rats infected in their right nostril with HSV-1. The brain specimens were obtained between 5 to 14 days after virus inoculation in the right nostril.\nThe improved survival of the HSV-1 infected rodents, as illustrated in example #2, could tentatively be due to that AF-16 blocked or at least reduced the proliferation of HSV1 virus in the infected brain. Therefore, adult rats were infected by having a solution of the herpes simplex virus type 1 (HSV-1; strain 2762, batch 041028; 1.7×10^7 PFU/mL) instilled in their right nostril. Half of the infected animals received 10 min later 25 pL (1 or 10 pg) of AF-16 in their right nostril, and had thereafter the same dose of AF-16 instilled every morning at 8 AM and every night at 6 PM until the experiment was terminated on day 6. The other groups of the HSV-1 infected rats received at the same time intervals 25 μL of the vehicle, PBS. The animals were closely watched for signs of general sickness and of behavioral and motor dysfunction. The animals were sacrificed by an overdose of anesthetics on day 6, the skull was then rapidly opened and the brain removed. […]"}, "[1]": {"test_system": "inflammation markers IL-1, IL-6, and TNF-a", "experiment": "Inflammation markers in CSF of HSV-1 infected rats", "conditions": "day 6, 1 or 10 pg intranasally twice daily, n=3", "protocol": "To test that hypothesis, adult rats were infected by having a solution of the herpes simplex virus type 1 (HSV-1; strain 2762, batch 041028; 1.7×10^7 PFU/mL) instilled in their right nostril. Half of the animals received 10 min later 25 μL (1 or 10 pg) of AF-16 in their right nostril, and had thereafter the same dose of AF-16 instilled every morning at 8 AM and every night at 6 PM until the experiment was terminated on day 6. The other half of the HSV-1 infected rats received at the same time intervals 25 μL of the vehicle, phosphate buffered saline. On day 6, cerebrospinal fluid (CSF) samples were taken from the animals, either treated with AF-16 (n=3), or the vehicle (n=3), according to the procedure described by Huang, Saljo and Hansson (1996). […] It is concluded that treatment with AF-16 is not likely to improve the survival of rodents suffering from HSV-1 encephalitis by altering the inflammatory response, but by normalizing the intracranial pressure, thereby preventing prevalence of high ICP in a CC and thereby the development of a CS. The deleterious effects caused by the HSV-1 encephalitis were thus considered to be due to that AF hampered the development of a CS."}, "pericardium": {"test_system": "pericardium", "experiment": "Traumatized pericardium, fluid accumulation", "conditions": "treated for a week after rubbing of pericardium", "from_the_text": "Adult rats had experimentally a CC condition induced affecting the pericardium and assessed with regard to effects of treatment with the peptide AF-16. The pericardial cavity is delimiting the heart, forming a sac filled with a minimal volume of fluid, enabling accommodation of the sliding movements resulting from the sudden and forceful contractions of the heart. The pericardial cavity is towards its periphery enclosed by a parietal membrane rich in collagen. On anaesthetized rats the pericardium was opened surgically, through a small “window” in the diaphragm and mediastinum. The inside of the pericardium was traumatized by rubbing it surgically through the incision. These animals were divided in two groups, one treated with AF-16 while the other had just the vehicle, PBS. […] In contrast, those animals that after the rubbing had been treated with the vehicle had their pericardium filled with fluid under pressure, and had further numerous fibrin strands and inflammatory cells. Additionally, the parietal pericardial envelop was swollen, inflamed and infiltrated by numerous enlarged, in parts newly formed blood vessels."}, "[2]": {"test_system": "liver, spleen, kidney and thyroid", "experiment": "Mechanical injury of liver, spleen, kidney and thyroid", "conditions": "compression and abrasion, vs vehicle", "from_the_text": "The liver, spleen, kidney and thyroid were similarly mechanically injured by compression and exposed to abrasion. […] Further the prevalence of ascites and related types of excessive extracellular fluid at elevated pressure was reduced. Thus AF-16 reduced the extent and severity of the CS in parenchymatous organs and tissues."}, "sciatic nerve": {"test_system": "sciatic nerve", "experiment": "Sciatic nerve crush, intraneural pressure", "from_the_text": "Peripheral and autonomic nerves are all delimited by an endoneurium, an perineurium and outermost an epineurium. Multiple nerve fascicles form a nerve (Cf. Hansson et al., 1987). Tendons and some of the ligaments in a body are delimited by a tender collagen membrane-like structure, the synovial sheath. The inner border layer of the latter connect the tendon with its synovial vagina, which enable sliding at minimal friction. The periphery of the latter structure is enclosed by a fibrous, membrane-like layer, the fibrous vagina. The enclosing paratendinium is in some locations hold in position and receiving nutrition by mesotendons and by vinculae (Cf. Hansson et al., 1980). […] Such a procedure resulted not only in impaired nerve function and structure but also in impaired blood and lymph circulation, and caused swelling of the sciatic nerve, the development of oedema, which included adjacent and enveloping structures, The IFP turned elevated, as assessed by the insertion of a Samba fibre optic pressure measuring probe in the affected tissue. […] The pressure in the perineurium was determined to become elevated in a day in those treated with just the vehicle, in agreement with the macroscopically recognized swelling and local oedema, i.e. having developed a CS. […]"}},
  "note": "Entries after “also recorded” stand apart in the source; their conditions may differ.",
  "data": [
    {"sequence": "VCHSKTRSNPENNVGL [AF-16]", "values": [
      {"measurement": "HSV-1 DNA copies in brain tissue vs vehicle", "setting": "HSV-1", "result": "no significant difference with regard to prevalence and distribution of HSV-1 DNA copies; also recorded: does not significantly affect the HSV-1 production"},
      {"measurement": "IL-1 concentration in CSF vs vehicle", "setting": "[1]", "result": "no significant difference in the concentrations"},
      {"measurement": "IL-6 concentration in CSF vs vehicle", "setting": "[1]", "result": "no significant difference in the concentrations"},
      {"measurement": "TNF-a concentration in CSF vs vehicle", "setting": "[1]", "result": "no significant difference in the concentrations"},
      {"measurement": "fluid in pericardial cavity", "setting": "pericardium", "result": "just minor accumulation of fluid in their pericardial cavity, at low pressure"},
      {"measurement": "oedema and swelling of injured organs", "setting": "[2]", "result": "reduce the oedema and swelling"},
      {"measurement": "intraneural pressure", "setting": "sciatic nerve; crushed sciatic nerve, high dose from time of injury", "result": "slightly elevated or close to that measured in a normal nerve"},
      {"measurement": "inflammation, oedema and tissue distortion (light microscopy)", "setting": "sciatic nerve; injured sciatic nerves", "result": "reduced the inflammation and the oedema and the tissue distortion"}
    ]}
  ]
}
